Measured values reported in PubChem BioAssay (NCI).
Where “and” joins values, the source holds several entries; their conditions need not be identical. Equal entries are not always repeated.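 Exposure lasted 48 hours, with cells grown in 96-well plates and compounds tested at five concentrations. GI50 = concentration required for 50% inhibition of growth. TGI: concentration producing complete growth inhibition.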

What was measured:
Test in all cases: NCI-60 cell line screen, 48 h
SR leukemia = system: SR leukemia
UO-31 renal = system: UO-31 renal
MDA-MB-231 breast = system: MDA-MB-231 breast
EKVX NSCLC = system: EKVX NSCLC
A549 NSCLC = system: A549 NSCLC
MALME-3M melanoma = system: MALME-3M melanoma
SK-MEL-2 melanoma = system: SK-MEL-2 melanoma
786-0 renal = system: 786-0 renal
HCT-116 colon = system: HCT-116 colon
SF-268 CNS = system: SF-268 CNS

With C=C1C(=O)O[C@H]2[C@H]1CC/C(CNC(=O)/C=C/c1ccccc1F)=C\CC[C@@]1(C)O[C@@H]21 as the compound, how does the GI50 (SR leukemia) read?
Its GI50 is 0.482 µM.

And the TGI (SR leukemia)?
Its TGI is 6.88 µM.

And the GI50 (UO-31 renal)?
The GI50 was 1.34 µM.

What about the TGI (UO-31 renal) of the same compound?
Its TGI is 2.91 µM.

And the GI50 (MDA-MB-231 breast)?
The GI50 was 1.93 µM.

What about the TGI (MDA-MB-231 breast) of the same compound?
Its TGI is 4.44 µM.

And the GI50 (EKVX NSCLC)?
The GI50 was 1.89 µM.

And the TGI (EKVX NSCLC)?
Its TGI is 5.95 µM.

And the GI50 (A549 NSCLC)?
Its GI50 is 7 µM.

And the TGI (A549 NSCLC)?
Its TGI is 24.5 µM.

What about the GI50 (MALME-3M melanoma) of the same compound?
Its GI50 is 1.54 µM.

What about the TGI (MALME-3M melanoma) of the same compound?
The TGI was 3.52 µM.

What about the GI50 (SK-MEL-2 melanoma) of the same compound?
The GI50 was 1.7 µM.

And the TGI (SK-MEL-2 melanoma)?
The TGI was 3.52 µM.

What about the GI50 (786-0 renal) of the same compound?
Its GI50 is 1.59 µM.

And the TGI (786-0 renal)?
The TGI was 3.71 µM.

And the GI50 (HCT-116 colon)?
Its GI50 is 0.482 µM.

What about the TGI (HCT-116 colon) of the same compound?
The TGI was 1.69 µM.

What about the GI50 (SF-268 CNS) of the same compound?
The GI50 was 2.83 µM.

What about the TGI (SF-268 CNS) of the same compound?
Its TGI is 9.8 µM.

CC(C)C(=O)c1c(C(F)(F)F)n([O-])c2ccccc2[n+]1=O was tested. Which GI50 (SR leukemia) did it give?
The GI50 was less than 0.0197 µM.

What about the GI50 (UO-31 renal) of the same compound?
The GI50 was 1.18 µM.

What about the TGI (UO-31 renal) of the same compound?
Its TGI is 3.11 µM.

And the GI50 (MDA-MB-231 breast)?
Its GI50 is 1.58 µM.

And the TGI (MDA-MB-231 breast)?
The TGI was 3.58 µM.

What about the GI50 (EKVX NSCLC) of the same compound?
Its GI50 is 0.876 µM.

And the TGI (EKVX NSCLC)?
The TGI was 2.57 µM.

What about the GI50 (A549 NSCLC) of the same compound?
Its GI50 is 2.46 µM.

And the TGI (A549 NSCLC)?
The TGI was 6.79 µM.

And the GI50 (MALME-3M melanoma)?
The GI50 was 0.654 µM.

What about the TGI (MALME-3M melanoma) of the same compound?
Its TGI is 2.03 µM.

What about the GI50 (SK-MEL-2 melanoma) of the same compound?
Its GI50 is 2.01 µM.

And the TGI (SK-MEL-2 melanoma)?
Its TGI is 5.58 µM.

And the GI50 (786-0 renal)?
Its GI50 is 1.65 µM.

And the TGI (786-0 renal)?
Its TGI is 3.73 µM.

And the GI50 (HCT-116 colon)?
The GI50 was 1.25 µM.

And the TGI (HCT-116 colon)?
Its TGI is 3.99 µM.

And the GI50 (SF-268 CNS)?
Its GI50 is 1.03 µM.

And the TGI (SF-268 CNS)?
Its TGI is 4.66 µM.

What does the source list for CC1Cc2ccccc2N1C(=O)Cc1nc(N2CCOCC2)cc(=O)[nH]1 (centres undefined)?
GI50 (SR leukemia): 22.6 µM and 24.4 µM; TGI (SR leukemia): 97.3 µM and > 100 µM; GI50 (UO-31 renal): 2.26 µM and 3.28 µM; TGI (UO-31 renal): > 100 µM; GI50 (MDA-MB-231 breast): 26.4 µM and 31.3 µM; TGI (MDA-MB-231 breast): > 100 µM; GI50 (EKVX NSCLC): 7.06 µM and 17.1 µM; TGI (EKVX NSCLC): > 100 µM; GI50 (A549 NSCLC): 17.3 µM and 24.5 µM; TGI (A549 NSCLC): > 100 µM; GI50 (MALME-3M melanoma): 3.18 µM and 7.81 µM; TGI (MALME-3M melanoma): 61.9 µM and > 79.1 µM; GI50 (SK-MEL-2 melanoma): 37.1 µM and 49.5 µM; TGI (SK-MEL-2 melanoma): > 100 µM; GI50 (786-0 renal): 0.639 µM and 3.19 µM; TGI (786-0 renal): > 100 µM and 98.4 µM; GI50 (HCT-116 colon): 6.47 µM and 24.8 µM; TGI (HCT-116 colon): > 100 µM; GI50 (SF-268 CNS): 18.1 µM and 19.9 µM; TGI (SF-268 CNS): > 100 µM

Which TGI (SR leukemia) does the source give for O=[N+]([O-])c1oc2ccc3ccccc3c2c1CCO here?
Its TGI is 3.23 µM.

What about the TGI (UO-31 renal) of the same compound?
The TGI was 3.89 µM.

And the TGI (MDA-MB-231 breast)?
The TGI was 59.3 µM.

And the TGI (EKVX NSCLC)?
Its TGI is 2.09 µM.

And the TGI (A549 NSCLC)?
The TGI was 7.29 µM.

And the TGI (MALME-3M melanoma)?
The TGI was 3.84 µM.

What about the TGI (SK-MEL-2 melanoma) of the same compound?
The TGI was 3.94 µM.

What about the TGI (786-0 renal) of the same compound?
Its TGI is greater than 50 µM.

What about the TGI (HCT-116 colon) of the same compound?
The TGI was greater than 29.7 µM.

What about the TGI (SF-268 CNS) of the same compound?
The TGI was 40.5 µM.

How did the GI50 (SR leukemia) turn out when NC(N)=Nc1ccc(/C=C2\C=Cc3ccccc32)cc1 was run?
The GI50 was 2.5 µM.

What about the TGI (SR leukemia) of the same compound?
Its TGI is 6.85 µM.

And the GI50 (UO-31 renal)?
Its GI50 is 2.15 µM.

And the TGI (UO-31 renal)?
Its TGI is 6.58 µM.

And the GI50 (MDA-MB-231 breast)?
The GI50 was 1.71 µM.

And the TGI (MDA-MB-231 breast)?
Its TGI is 3.83 µM.

And the GI50 (EKVX NSCLC)?
Its GI50 is 4.74 µM.

And the TGI (EKVX NSCLC)?
The TGI was 22.2 µM.

What about the GI50 (A549 NSCLC) of the same compound?
The GI50 was 1.87 µM.

And the TGI (A549 NSCLC)?
Its TGI is 4.63 µM.

And the GI50 (MALME-3M melanoma)?
The GI50 was 4.41 µM.

What about the TGI (MALME-3M melanoma) of the same compound?
The TGI was 16.5 µM.

And the GI50 (SK-MEL-2 melanoma)?
Its GI50 is 4.83 µM.

What about the TGI (SK-MEL-2 melanoma) of the same compound?
The TGI was 11.6 µM.

And the GI50 (786-0 renal)?
The GI50 was 3.22 µM.

And the TGI (786-0 renal)?
Its TGI is 14.8 µM.

What about the GI50 (HCT-116 colon) of the same compound?
Its GI50 is 1.55 µM.

What about the TGI (HCT-116 colon) of the same compound?
Its TGI is 2.93 µM.

And the GI50 (SF-268 CNS)?
The GI50 was 3.12 µM.

And the TGI (SF-268 CNS)?
Its TGI is 10.9 µM.
